Reference: patent US20250018047A1, “METHODS AND COMPOSITIONS FOR TARGETED PROTEIN DEGRADATION” (Ranok Therapeutics (Hangzhou) Co. Ltd., priority 2021, published 2025)
Where a name gives a salt, the structure may show the parent alone.

Assays:
KRAS(G12D)/SOS1 = biological target: T1, KRAS(G12D)/SOS1 (Homo sapiens, UniProt P01116, G12D); test: KRAS(G12D)/SOS1 homogeneous time-resolved fluorescence (HTRF) assay; type: binding; details: absence of GTP, 4° C. for 3 hr
T1 construct: purchased Cisbio 63ADK000CB16PEG
T1 sequence (P01116 1-188 isoform P01116-2 G12D): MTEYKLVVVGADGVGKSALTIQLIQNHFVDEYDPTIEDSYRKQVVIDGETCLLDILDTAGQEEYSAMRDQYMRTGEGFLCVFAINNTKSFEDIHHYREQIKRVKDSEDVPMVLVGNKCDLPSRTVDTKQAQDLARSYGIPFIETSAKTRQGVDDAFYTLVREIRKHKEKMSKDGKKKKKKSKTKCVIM
Experimental: The test compound was mixed and incubated with reaction components, incubated in a sealed plate at 4° C. for 3 hr and fluorescence was measured using a PerkinElmer Envision plate reader.

[1] = system: AsPC-1 human pancreatic adenocarcinoma; test: CellTiter-Glo cancer cell line proliferation assay, AsPC-1; type: cell-based; details: Homo sapiens, ASPC1, 24 hr
In short: (§1)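 Cells plated at 4,000/well, grown 24 h at 37 °C/5% CO2, then exposed to compound concentration series (0.5% DMSO final) for 24 h. Viability read by CellTiter-Glo luminescence; IC50 values calculated.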

[2] = system: A-427 human lung carcinoma; test: CellTiter-Glo cancer cell line proliferation assay, A-427; type: cell-based; details: Homo sapiens, A-427, 24 hr, read-out: A427 at 24 hrs, IC50
In short: as §1

[3] = biological target: BA/F3-KRAS(G12D) murine pro-B cell line stably expressing KRAS(G12D) (Homo sapiens, UniProt P01116, G12D, cells depend on it); test: CellTiter-Glo cancer cell line proliferation assay, BA/F3-KRAS(G12D); type: cell-based; details: 24 hr, read-out: BAF3 at 24 hrs, IC50
Sequence of BA/F3-KRAS(G12D) murine pro-B cell line stably expressing KRAS(G12D) (P01116 whole entry G12D): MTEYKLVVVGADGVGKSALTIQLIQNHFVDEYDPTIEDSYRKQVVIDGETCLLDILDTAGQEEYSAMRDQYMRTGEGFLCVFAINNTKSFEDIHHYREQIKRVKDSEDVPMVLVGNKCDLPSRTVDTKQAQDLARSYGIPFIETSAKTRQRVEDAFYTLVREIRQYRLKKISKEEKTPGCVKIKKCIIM
In short: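 BA/F3 cells expressing KRAS(G12D), 4,000/well in RPMI 1640 + 10% FCS, exposed 24 h at 37 °C to 3-fold dilutions (20 μM to 1.02 nM, 0.5% DMSO). Viability by CellTiter-Glo luminescence; IC50 calculated from the dose-response.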

C#Cc1cccc2cccc(-c3ncc4c(N5CC6CCC(C5)N6)nc(OCC5(CN6CCN(Cc7ccc8c(c7)CN(C7CCC(=O)NC7=O)C8=O)CC6)CC5)nc4c3F)c12 (stereo not shown) [Compound 31, 3-(5-((4-((1-(((4-(3,8-diazabicyclo[3.2.1]octan-3-yl)-7-(8-ethynylnaphthalen-1-yl)-8-fluoropyrido[4,3-d]pyrimidin-2-yl)oxy)methyl)cyclopropyl)methyl)piperazin-1-yl)methyl)-1-oxoisoindolin-2-yl)piperidine-2,6-dione formate]
IC50 (KRAS(G12D)/SOS1): < 100 nM
IC50 [1]: > 1000 nM
IC50 [2]: > 1000 nM
GI50 [3]: > 1000 nM
